Literature values in patent publication US20120251462A1, “Agent For Smoker Dehabituation” (Cognis IP Management GmbH, priority 2011, published 2012).

Tested on: nACh receptors
Settings: exceeds affinity of nicotine

Clc1ccc(C2CC3CCC2N3)cn1 (stereo not shown) [Epibatidin]
affinity for nACh receptors relative to nicotine: 120 fold
